Measurements published in patent US6737383B1, “Herbicidal oxadiazolidines” (priority 1999, dated 2004).

Tests used:
smallflower flatsedge = assay: Test B flood test smallflower flatsedge; format: in vivo, Cyperus difformis
Method in brief: (§1)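 Read-out is a visual response score from 0 (no effect) to 10 (complete control), assigned by comparison with untreated controls. Treatment was applied at the 2-leaf stage, and plants stayed in the greenhouse for twelve to sixteen days before scoring.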

green foxtail = assay: Test E green foxtail; format: in vivo, Setaria viridis; conditions: Preemergence
sugar beet = assay: Test B pre/postemergence sugar beet; format: in vivo, Beta vulgaris
Method in brief: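 Test chemicals in a non-phytotoxic solvent mixture with surfactant were sprayed preemergence onto planted seeds and postemergence onto plants 2 to 18 cm tall (1- to 4-leaf stage). After twelve to sixteen days in a greenhouse, injury was visually rated against untreated controls from 0 (no effect) to 10 (complete control).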

Italian ryegrass = assay: Test E Italian ryegrass; format: in vivo, Lolium multiflorum; conditions: Preemergence
duck salad = assay: Test B flood test duck salad; format: in vivo, Heteranthera limosa
Method in brief: as §1

wild oat = assay: Test E wild oat; format: in vivo, Avena fatua; conditions: Preemergence
blackgrass = assay: Test E blackgrass; format: in vivo, Alopecurus myosuroides; conditions: Preemergence
bamyardgrass = assay: Test B flood test barnyardgrass; format: in vivo, Echinochloa crus-galli
Method in brief: as §1

winter wheat [1] = assay: Test E winter wheat; format: in vivo, Triticum aestivum; conditions: Postemergence, 0 to 100 scale
Method in brief: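 Postemergence: 60:40 sandy loam/greenhouse potting mix, 1- to 4-leaf stage. Formulation: solvent plus surfactant. Assessment: visual comparison with untreated controls at ~21–28 days.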

winter barley = assay: Test E winter barley; format: in vivo, Hordeum vulgare; conditions: Preemergence
winter wheat [2] = assay: Test E winter wheat; format: in vivo, Triticum aestivum; conditions: Preemergence
rice = assay: Test B flood test rice; format: in vivo, Oryza sativa
Method in brief: as §1

[3] = Pre-emergence, Rate 1000 g/ha, scale 0 to 10 (0 no effect, 10 complete control)
[4] = Rate 62 g/ha, headed Pre-emergence (flood test species), scale 0 to 10 (0 no effect, 10 complete control)
[5] = Rate 125 g/ha, Pre-emergence, flood test species, scale 0 to 10 where 0 is no effect and 10 is complete control
[6] = Rate 250 g/ha, Pre-emergence, flood-test species, scale 0 to 10, 0 is no effect, 10 is complete control
[7] = Rate 500 g/ha, Pre-emergence, flood test species, scale 0 to 10 (0 no effect, 10 complete control)
[8] = Rate 62 g/ha, 0 to 100 scale, 0 no effect, 100 complete control
[9] = Rate 125 g/ha, 0 to 100 scale (0 no effect, 100 complete control)
[10] = Preemergence, Rate 62 g/ha, scale of 0 to 10 where 0 is no effect and 10 is complete control
[11] = Preemergence, Rate 250 g/ha, scale of 0 to 10 where 0 is no effect and 10 is complete control
[12] = Preemergence, Rate 500 g/ha, scale of 0 to 10 where 0 is no effect and 10 is complete control
[13] = Rate 62 g/ha, Postemergence, scale 0 to 10 (0 no effect, 10 complete control)
[14] = Rate 125 g/ha, Postemergence, scale of 0 to 10 where 0 is no effect and 10 is complete control
[15] = Rate 250 g/ha, Postemergence, scale of 0 to 10 where 0 is no effect and 10 is complete control
[16] = Rate 125 g/ha, 0 is no effect, 100 is complete control
[17] = Rate 250 g/ha, 0 is no effect, 100 is complete control
[18] = Rate 250 g/ha, 0 to 100 scale, 0 no effect, 100 complete control
[19] = Rate 500 g/ha, 0 to 100 scale (0 no effect, 100 complete control)
[20] = Rate 500 g/ha, 0 is no effect, 100 is complete control
[21] = Postemergence (flood test), Rate 125 g/ha, scale 0 to 10, 0 is no effect, 10 is complete control
[22] = Rate 62 g/ha, Postemergence (flood test species), scale of 0 to 10 where 0 is no effect and 10 is complete control
[23] = Rate 62 g/ha, flood test species, Pre-emergence, visual evaluation after twelve to sixteen days
[24] = Rate 500 g/ha, listed under Postemergence (flood test species), scale 0 to 10, 0 no effect, 10 complete control

CC(C)N(C(=O)n1oc(=O)n(C2CCOCC2)c1=O)c1ccc(F)cc1 [Compound 310]
S. Flatsedge plant response rating (smallflower flatsedge; [3]): 0 | S. Flatsedge plant response rating (smallflower flatsedge; [4]): 0 | S. Flatsedge plant response rating (smallflower flatsedge; [5]): 0 | S. Flatsedge plant response rating (smallflower flatsedge; [6]): 0 | S. Flatsedge plant response rating (smallflower flatsedge; [7]): 3 | Plant response rating, Green foxtail (green foxtail; [8]): 100 | Plant response rating, Green foxtail (green foxtail; [9]): 100 | Plant response rating, Green foxtail (green foxtail; Rate 250 g/ha, 0 to 100 scale): 100 | Sugarbeets plant response rating (sugar beet; [10]): 5 | Sugarbeets plant response rating (0 to 10 scale) (sugar beet; Preemergence, Rate 125 g/ha): 7 | Sugarbeets plant response rating (sugar beet; [11]): 10 | Sugarbeets plant response rating (sugar beet; [12]): 10 | Sugarbeets plant response rating (sugar beet; [13]): 0 | Sugarbeets plant response rating (sugar beet; [14]): 0 | Plant response rating, Sugarbeets (sugar beet; [15]): 2 | Plant response rating, I. Ryegrass (Italian ryegrass; [8]): 70 | Plant response rating, I. Ryegrass (Italian ryegrass; [9]): 70 | Plant response rating, I. Ryegrass (Italian ryegrass; Rate 250 g/ha, 0 to 100 scale): 70 | Ducksalad plant response rating (duck salad; [3]): 0 | Ducksalad plant response rating (duck salad; [4]): 0 | Ducksalad plant response rating (duck salad; [5]): 0 | Ducksalad plant response rating (duck salad; [6]): 0 | Ducksalad plant response rating (duck salad; [7]): 3 | Plant response rating, Wild oat (wild oat; [8]): 70 | Plant response rating, Wild oat (wild oat; [9]): 50 | Plant response rating, Wild oat (wild oat; Rate 250 g/ha, 0 to 100 scale): 70 | Plant response rating, Blackgrass (blackgrass; [8]): 85 | Plant response rating, Blackgrass (blackgrass; [9]): 85 | Plant response rating, Blackgrass (blackgrass; Rate 250 g/ha, 0 to 100 scale): 85 | Barnyardgrass plant response rating (bamyardgrass; [3]): 6 | Barnyardgrass plant response rating (bamyardgrass; [4]): 0 | Barnyardgrass plant response rating (bamyardgrass; [5]): 0 | Barnyardgrass plant response rating (bamyardgrass; [6]): 4 | Barnyardgrass plant response rating (bamyardgrass; [7]): 7 | Plant response rating, Wheat (winter) (winter wheat [1]; Rate 62 g/ha): 75 | Plant response rating, Wheat (winter) (winter wheat [1]; [16]): 80 | Plant response rating, Wheat (winter) (winter wheat [1]; [17]): 80 | Plant response rating, Barley (winter) (winter barley; [8]): 50 | Plant response rating, Barley (winter) (winter barley; [9]): 60 | Plant response rating, Barley (winter) (winter barley; [18]): 70 | Plant response rating, Wheat (winter) (winter wheat [2]; [8]): 60 | Plant response rating, Wheat (winter) (winter wheat [2]; [9]): 40 | Plant response rating, Wheat (winter) (winter wheat [2]; Rate 250 g/ha, 0 to 100 scale): 70 | Rice plant response rating (rice; [3]): 0 | Rice plant response rating (rice; [4]): 0 | Rice plant response rating (rice; [5]): 0 | Rice plant response rating (rice; [6]): 0 | Rice plant response rating (rice; [7]): 0

COC(Cn1c(=O)on(C(=O)N(c2ccc(F)cc2)C(C)C)c1=O)OC [Compound 317]
S. Flatsedge plant response rating (smallflower flatsedge; [3]): 0 | S. Flatsedge plant response rating (smallflower flatsedge; [5]): 0 | S. Flatsedge plant response rating (smallflower flatsedge; [6]): 0 | S. Flatsedge plant response rating (smallflower flatsedge; [7]): 0 | Plant response rating, Green foxtail (green foxtail; [9]): 100 | Plant response rating, Green foxtail (green foxtail; Rate 250 g/ha, 0 to 100 scale): 100 | Plant response rating, Green foxtail (green foxtail; [19]): 100 | Sugarbeets plant response rating (sugar beet; [10]): 1 | Sugarbeets plant response rating (0 to 10 scale) (sugar beet; Preemergence, Rate 125 g/ha): 4 | Sugarbeets plant response rating (sugar beet; [11]): 7 | Sugarbeets plant response rating (sugar beet; [12]): 8 | Sugarbeets plant response rating (sugar beet; [13]): 0 | Sugarbeets plant response rating (sugar beet; [14]): 0 | Plant response rating, Sugarbeets (sugar beet; [15]): 1 | Plant response rating, I. Ryegrass (Italian ryegrass; [9]): 60 | Plant response rating, I. Ryegrass (Italian ryegrass; Rate 250 g/ha, 0 to 100 scale): 85 | Plant response rating, I. Ryegrass (Italian ryegrass; [19]): 95 | Ducksalad plant response rating (duck salad; [3]): 0 | Ducksalad plant response rating (duck salad; [5]): 0 | Ducksalad plant response rating (duck salad; [6]): 0 | Ducksalad plant response rating (duck salad; [7]): 0 | Plant response rating, Wild oat (wild oat; [9]): 60 | Plant response rating, Wild oat (wild oat; Rate 250 g/ha, 0 to 100 scale): 60 | Plant response rating, Wild oat (wild oat; [19]): 70 | Plant response rating, Blackgrass (blackgrass; [9]): 50 | Plant response rating, Blackgrass (blackgrass; Rate 250 g/ha, 0 to 100 scale): 100 | Plant response rating, Blackgrass (blackgrass; [19]): 60 | Barnyardgrass plant response rating (bamyardgrass; [3]): 0 | Barnyardgrass plant response rating (bamyardgrass; [5]): 0 | Barnyardgrass plant response rating (bamyardgrass; [6]): 0 | Barnyardgrass plant response rating (bamyardgrass; [7]): 0 | Plant response rating, Wheat (winter) (winter wheat [1]; [16]): 70 | Plant response rating, Wheat (winter) (winter wheat [1]; [17]): 95 | Plant response rating, Wheat (winter) (winter wheat [1]; [20]): 95 | Plant response rating, Barley (winter) (winter barley; [9]): 40 | Plant response rating, Barley (winter) (winter barley; [18]): 50 | Plant response rating, Barley (winter) (winter barley; [19]): 70 | Plant response rating, Wheat (winter) (winter wheat [2]; [9]): 50 | Plant response rating, Wheat (winter) (winter wheat [2]; Rate 250 g/ha, 0 to 100 scale): 50 | Plant response rating, Wheat (winter) (winter wheat [2]; [19]): 60 | Rice plant response rating (rice; [3]): 0 | Rice plant response rating (rice; [5]): 0 | Rice plant response rating (rice; [6]): 0 | Rice plant response rating (rice; [7]): 0

CCC(CC)n1c(=O)on(C(=O)N(c2ccccc2)C(C)C)c1=O [Compound 354]
Plant response rating, S. Flatsedge (smallflower flatsedge; [21]): 8 | S. Flatsedge plant response rating (smallflower flatsedge; [22]): 5 | Plant response rating, S. Flatsedge (0 to 10 scale, 0 is no effect, 10 is complete control) (smallflower flatsedge; [23]): 0 | S. Flatsedge plant response rating (smallflower flatsedge; [5]): 0 | S. Flatsedge plant response rating (smallflower flatsedge; [6]): 0 | Plant response rating, S. Flatsedge (smallflower flatsedge; [24]): 9 | S. Flatsedge plant response rating (smallflower flatsedge; [7]): 0 | Plant response rating, Green foxtail (green foxtail; [9]): 85 | Plant response rating, Green foxtail (green foxtail; Rate 250 g/ha, 0 to 100 scale): 80 | Plant response rating, Green foxtail (green foxtail; [19]): 100 | Plant response rating, Sugarbeets (sugar beet; Postemergence, Rate 125 g/ha, scale 0 to 10, 0 is no effect, 10 is complete control): 1 | Plant response rating, Sugarbeets (sugar beet; Preemergence, Rate 62 g/ha, scale 0 to 10 (0 no effect, 10 complete control)): 0 | Sugarbeets plant response rating (0 to 10 scale) (sugar beet; Preemergence, Rate 125 g/ha): 0 | Sugarbeets plant response rating (sugar beet; [11]): 2 | Sugarbeets plant response rating (sugar beet; [12]): 6 | Sugarbeets plant response rating (sugar beet; Rate 62 g/ha, Postemergence, scale of 0 to 10 where 0 is no effect and 10 is complete control): 0 | Plant response rating, Sugarbeets (sugar beet; Rate 500 g/ha, Postemergence, scale 0 to 10, 0 no effect, 10 complete control): 3 | Plant response rating, I. Ryegrass (Italian ryegrass; [9]): 50 | Plant response rating, I. Ryegrass (Italian ryegrass; Rate 250 g/ha, 0 to 100 scale): 60 | Plant response rating, I. Ryegrass (Italian ryegrass; [19]): 90 | Plant response rating, Ducksalad (duck salad; [21]): 3 | Ducksalad plant response rating (duck salad; [22]): 0 | Plant response rating, Ducksalad (0 to 10 scale, 0 is no effect, 10 is complete control) (duck salad; [23]): 0 | Ducksalad plant response rating (duck salad; [5]): 0 | Ducksalad plant response rating (duck salad; [6]): 0 | Plant response rating, Ducksalad (duck salad; [24]): 5 | Ducksalad plant response rating (duck salad; [7]): 0 | Plant response rating, Wild oat (wild oat; [9]): 0 | Plant response rating, Wild oat (wild oat; Rate 250 g/ha, 0 to 100 scale): 30 | Plant response rating, Wild oat (wild oat; [19]): 40 | Plant response rating, Blackgrass (blackgrass; [9]): 50 | Plant response rating, Blackgrass (blackgrass; Rate 250 g/ha, 0 to 100 scale): 55 | Plant response rating, Blackgrass (blackgrass; [19]): 30 | Plant response rating, Barnyardgrass (bamyardgrass; [21]): 4 | Barnyardgrass plant response rating (bamyardgrass; [22]): 0 | Plant response rating, Barnyardgrass (0 to 10 scale, 0 is no effect, 10 is complete control) (bamyardgrass; [23]): 0 | Barnyardgrass plant response rating (bamyardgrass; [5]): 0 | Plant response rating, Barnyardgrass (bamyardgrass; Rate 250 g/ha, Postemergence (flood test species), scale of 0 to 10 where 0 is no effect and 10 is complete control): 7 | Barnyardgrass plant response rating (bamyardgrass; [6]): 0 | Plant response rating, Barnyardgrass (bamyardgrass; [24]): 9 | Barnyardgrass plant response rating (bamyardgrass; [7]): 0 | Plant response rating, Wheat (winter) (winter wheat [1]; [16]): 30 | Plant response rating, Wheat (winter) (winter wheat [1]; [17]): 40 | Plant response rating, Wheat (winter) (winter wheat [1]; [20]): 50 | Plant response rating, Barley (winter) (winter barley; [9]): 20 | Plant response rating, Barley (winter) (winter barley; [18]): 30 | Plant response rating, Barley (winter) (winter barley; [19]): 40 | Plant response rating, Wheat (winter) (winter wheat [2]; [9]): 30 | Plant response rating, Wheat (winter) (winter wheat [2]; Rate 250 g/ha, 0 to 100 scale): 50 | Plant response rating, Wheat (winter) (winter wheat [2]; [19]): 60 | Plant response rating, Rice (rice; [21]): 0 | Rice plant response rating (rice; [22]): 0 | Plant response rating, Rice (0 to 10 scale, 0 is no effect, 10 is complete control) (rice; [23]): 0 | Rice plant response rating (rice; [5]): 0 | Rice plant response rating (rice; [6]): 0 | Plant response rating, Rice (rice; [24]): 2 | Rice plant response rating (rice; [7]): 0
